{"source": "paper PMC6925188", "about": "“PBRM1 acts as a p53 lysine-acetylation reader to suppress renal tumor growth” (Nature Communications, 2019)", "key": {"Ren-01 PBRM1 KO cells": {"test_system": "Ren-01 PBRM1 KO cells", "assay": "Immunoblot of p53 targets, Ren-01 PBRM1 KO cells", "format": "cell-based", "settings": "50 μM etoposide", "experimental": "The band intensity of indicated protein was measured with Bio-rad Image Lab 4.1, and the relative ratios were calculated over the signal intensity of Vinculin in the corresponding lanes. c–e. Nude mice xenograft analyses were performed with Ren-01 PBRM1 KO cells expressing GFP (left flank) or PBRM1 (right flank). Representative photographs of a mouse (c, top) and tumors (c, bottom). Tumors were excised and weighed, and data are presented as mean ± SEM (d). p-values were calculated using the paired two-tailed Student’s t-test. Tumors were stained for PBRM1 and p21 expression via IHC (e). Scale bar: 200 μm. f–h Nude mice xenograft analyses were performed with Ren-01 PBRM1 KO cells expressing wild-type PBRM1 (left flank) or the BD4* mutant PBRM1 (right flank). Tumors were excised and weighed, and data are presented as mean ± SEM (g). p-values were calculated using the paired two-tailed Student’s t-test. Representative photographs of a mouse (f, top) and tumors (f, bottom). Tumors were stained for PBRM1 and p21 expression via IHC analysis (h). Scale bar: 200 μm. Source data are provided as a Source Data file.\nAfter washing with ice-cold PBS, cells were scraped on ice and centrifuged at 10,000 × g for 1 min at 4 °C. […]"}, "p53 binding to CDKN1A": {"test_system": "p53 binding to CDKN1A", "assay": "ChIP-qPCR, p53 antibody, CDKN1A gene, RCC4 cells", "format": "cell-based", "set-up": "p53 ChIP at CDKN1A-intron / p53 ChIP at CDKN1A-RE1 / p53 ChIP at CDKN1A-TSS: unit not given here", "settings": "24 h; for p53 ChIP at CDKN1A-RE1 / p53 ChIP at CDKN1A-TSS / p53 ChIP at CDKN1A-intron: 100 μM", "experimental": "Lysates were analyzed by immunoblots. c RCC4 cells with or without p53 KO were transfected with vector or Flag-PBRM1 at the indicated amounts. […] Cells were harvested for RT-qPCR (g) or ChIP followed by qPCR (h). […] Representative data is shown in i. Quantification of cell cycle phase is shown in j. Source data are provided as a Source Data file.\nChIP assays were performed with the Pierce Agarose ChIP Kit (26156, Thermo Scientific) according to the manufacturer’s instructions with minor revisions. In brief, samples were crosslinked with 1% paraformaldehyde and halted by 125 mM glycine. After washing twice with ice-cold PBS, cells were harvested and suspended in Lysis Buffer 1 and incubated on ice for 10 min. 1 × 10^7 nuclei were resuspended in 500 μl MNase Digestion Buffer containing 6.25 U Micrococcal Nuclease and incubated at 37 °C for 15 min. After the reaction was stopped, nuclei were pelleted by centrifugation and resuspended in 250 μl Lysis Buffer 2. Nuclei were sonicated at 10% amplitude for 10 s twice and incubated on ice for 30 min. After centrifugation, 50 μl supernatant containing the digested chromatin from 2 × 10^6 nuclei was diluted in 1× IP Dilution Buffer and incubated with antibodies (normal rabbit IgG for control, 1 μg FL393 + 1 μg DO-1 for p53 or 2 μg Flag M2 for Flag-PBRM1) overnight at 4 °C. […] of ChIP Grade Protein A/G Plus Agarose was added and incubated for 1 h at 4 °C. The agarose resins were washed once with IP Wash Buffer 1, twice with IP Wash Buffer 2 and once with IP Wash Buffer 3. 150 μl 1× IP Elution Buffer was added to the washed resin and incubated at 65 °C for 30 min with shaking. The eluate was treated with Proteinase K and DNA was extracted with columns provided in the kit."}}, "note": "Marks after values point to notes of the source that are not given here.", "data": [{"compound": "COc1cc([C@@H]2c3cc4c(cc3[C@@H](O[C@@H]3O[C@@H]5CO[C@@H](C)O[C@H]5[C@H](O)[C@H]3O)[C@H]3COC(=O)[C@H]23)OCO4)cc(OC)c1O", "note": "[Etoposide]", "values": [{"measurement": "expression of p53 downstream targets after DNA damage, wild-type vs BD4* PBRM1", "setting": "Ren-01 PBRM1 KO cells", "result": "rescued by wild-type but not BD4* mutant PBRM1"}, {"measurement": "p53 binding to CDKN1A RE1 with PBRM1", "setting": "p53 binding to CDKN1A; 100 μM etoposide, RCC4", "result": "significantly enhanced by wild-type but not BD4* mutant PBRM1"}, {"measurement": "p53 ChIP at CDKN1A-RE1", "setting": "p53 binding to CDKN1A; RCC4-GFP, assay 1", "result": 1.555}, {"measurement": "p53 ChIP at CDKN1A-TSS", "setting": "p53 binding to CDKN1A; RCC4-GFP, assay 1", "result": 0.1782}, {"measurement": "p53 ChIP at CDKN1A-intron", "setting": "p53 binding to CDKN1A; RCC4-GFP, assay 1", "result": 0.077}, {"measurement": "p53 ChIP at CDKN1A-RE1", "setting": "p53 binding to CDKN1A; RCC4-GFP, assay 2", "result": 1.8621}, {"measurement": "p53 ChIP at CDKN1A-TSS", "setting": "p53 binding to CDKN1A; RCC4-GFP, assay 2", "result": 0.1891}, {"measurement": "p53 ChIP at CDKN1A-intron", "setting": "p53 binding to CDKN1A; RCC4-GFP, assay 2", "result": 0.0504}, {"measurement": "p53 ChIP at CDKN1A-RE1", "setting": "p53 binding to CDKN1A; RCC4-GFP, assay 3", "result": 1.9888}, {"measurement": "p53 ChIP at CDKN1A-TSS", "setting": "p53 binding to CDKN1A; RCC4-GFP, assay 3", "result": 0.2677}, {"measurement": "p53 ChIP at CDKN1A-intron", "setting": "p53 binding to CDKN1A; RCC4-GFP, assay 3", "result": 0.06}, {"measurement": "p53 ChIP at CDKN1A-RE1", "setting": "p53 binding to CDKN1A; RCC4-PBRM1-BD4*, assay 1", "result": 1.5332}, {"measurement": "p53 ChIP at CDKN1A-TSS", "setting": "p53 binding to CDKN1A; RCC4-PBRM1-BD4*, assay 1", "result": 0.1764}, {"measurement": "p53 ChIP at CDKN1A-intron", "setting": "p53 binding to CDKN1A; RCC4-PBRM1-BD4*, assay 1", "result": 0.0801}, {"measurement": "p53 ChIP at CDKN1A-RE1", "setting": "p53 binding to CDKN1A; RCC4-PBRM1-BD4*, assay 2", "result": 1.7924}, {"measurement": "p53 ChIP at CDKN1A-TSS", "setting": "p53 binding to CDKN1A; RCC4-PBRM1-BD4*, assay 2", "result": 0.1865}, {"measurement": "p53 ChIP at CDKN1A-intron", "setting": "p53 binding to CDKN1A; RCC4-PBRM1-BD4*, assay 2", "result": 0.0517}, {"measurement": "p53 ChIP at CDKN1A-RE1", "setting": "p53 binding to CDKN1A; RCC4-PBRM1-BD4*, assay 3", "result": 1.8343}, {"measurement": "p53 ChIP at CDKN1A-TSS", "setting": "p53 binding to CDKN1A; RCC4-PBRM1-BD4*, assay 3", "result": 0.221}, {"measurement": "p53 ChIP at CDKN1A-intron", "setting": "p53 binding to CDKN1A; RCC4-PBRM1-BD4*, assay 3", "result": 0.0545}, {"measurement": "p53 ChIP at CDKN1A-RE1", "setting": "p53 binding to CDKN1A; RCC4-PBRM1, assay 1", "result": 1.8428}, {"measurement": "p53 ChIP at CDKN1A-TSS", "setting": "p53 binding to CDKN1A; RCC4-PBRM1, assay 1", "result": 0.2655}, {"measurement": "p53 ChIP at CDKN1A-intron", "setting": "p53 binding to CDKN1A; RCC4-PBRM1, assay 1", "result": 0.0601}, {"measurement": "p53 ChIP at CDKN1A-RE1", "setting": "p53 binding to CDKN1A; RCC4-PBRM1, assay 2", "result": 2.4571}, {"measurement": "p53 ChIP at CDKN1A-TSS", "setting": "p53 binding to CDKN1A; RCC4-PBRM1, assay 2", "result": 0.2336}, {"measurement": "p53 ChIP at CDKN1A-intron", "setting": "p53 binding to CDKN1A; RCC4-PBRM1, assay 2", "result": 0.0759}, {"measurement": "p53 ChIP at CDKN1A-RE1", "setting": "p53 binding to CDKN1A; RCC4-PBRM1, assay 3", "result": 2.4942}, {"measurement": "p53 ChIP at CDKN1A-TSS", "setting": "p53 binding to CDKN1A; RCC4-PBRM1, assay 3", "result": 0.2293}, {"measurement": "p53 ChIP at CDKN1A-intron", "setting": "p53 binding to CDKN1A; RCC4-PBRM1, assay 3", "result": 0.0609}]}]}
